Consider 79 molecules from the METLIN SMRT retention time set (Domingo-Almenara et al. 2019).

This data set is described as follows: gradient 5% acetonitrile 3 min, to 50% in 2 min, to 85% in 15 min, held 3 min, 100 µL/min. Conditions: column: Zorbax Extend-C18 2.1 x 50 mm; eluents: water / acetonitrile, 0.1% formic acid. The essentials: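 Standards, all pure, were combined into mixtures of ~100 molecules and run at 100 μL/min on a Zorbax Extend-C18 column (2.1 × 50 mm, 1.8 μm) with water and acetonitrile, each containing 0.1% formic acid. A coupled quadrupole time-of-flight mass spectrometer operated in positive and negative ionization mode. Retention time values come from computationally picked adduct peaks, each inspected manually.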
The molecule `Cc1ccc(NC(=O)Cn2c(=O)n(-c3ccccc3)c(=O)c3c2cc(C)n3C)cc1Cl` had an RP-LC retention time of 927 s. The result for `CC(C)c1noc(C2(NC(=O)c3cnccn3)CCCCC2)n1` reads 894 s; that for `COc1ccc2[nH]cc(CCNC(=O)C3CCN(S(=O)(=O)c4ccc5c(ccn5C)c4)CC3)c2c1`, 851 s.

The molecule `CCCn1cnc2ccc(-c3noc(C(C)NC(=O)c4ccco4)n3)cc21` (centres undefined) registered an RP-LC retention time of 584 s. In turn, `CC(C)C(NC(=O)Nc1ccc2c(c1)OCO2)C(=O)N1CCc2ccccc21` (centres undefined) came in with an RP-LC retention time of 898 s. With `Cn1c(=O)c2ccnn2c2ccc(C(=O)NC3CCCCC3)cc21` the figure was 742 s; with `Cc1nn(-c2ccccc2)c2ccn(CC(=O)N3CCN(c4ccc(Cl)cc4)CC3)c(=O)c12`, 948 s. Take `CC(=O)c1cccc(Nc2c(C(=O)N3CCOCC3)cnc3nc(C)ccc23)c1`: the RP-LC retention time was 584 s. The result for `O=C(Nc1ccc(OC(F)(F)F)cc1)C1CCCN(c2cc(-n3cccn3)ncn2)C1` (centres undefined) reads 992 s.

In turn, `Cc1cccc(CNC(=O)CN2C(=O)C3CCCCN3c3ccc(S(=O)(=O)N4CCCC4)cc32)c1` (centres undefined) registered an RP-LC retention time of 1080 s. As for `CCOc1ccc(-c2cn3ccn(-c4ccc(F)c(Cl)c4)c(=O)c3n2)cc1`, the RP-LC retention time is 918 s. The result for `CCOC(=O)c1cccc(N2C=C(C#N)S(=O)(=O)c3c(F)cccc32)c1` reads 907 s; that for `CCC(C)NC(=O)C1c2cc(OC)c(OC)cc2C(=O)N(C)C1c1ccc(OC)c(OC)c1` (centres undefined), 710 s. `Cc1cccc(N2CCN(C(=O)C3CCN(S(=O)(=O)c4cn(C)c(C)n4)CC3)CC2C)c1` (centres undefined): the RP-LC retention time was 667 s. The result for `CC1CN(c2nc3ccccc3nc2SCC(=O)N2CCOCC2)CC(C)O1` (centres undefined) reads 882 s. In turn, `CCOc1ncccc1C(=O)NCc1cc(-c2cccs2)on1` gave an RP-LC retention time of 831 s. Consider `Fc1ccc(-c2nnc(Cc3nc(-c4cccnc4)no3)o2)cc1`, for which the RP-LC retention time is 747 s. The result for `O=C(CN1CCc2ccccc2C1C(=O)N1CCCC1)Nc1ccc(Cl)cc1` (centres undefined) reads 860 s; that for `Cc1ccc2c(c1)C(O)(CC(=O)c1ccccc1)C(=O)N2` (centres undefined), 666 s. The result for `O=c1ccn(-c2cccc(F)c2)nc1-c1nc(-c2ccc(F)c(Cl)c2)no1` reads 984 s; that for `COc1ccc(N2CC(c3noc(-c4ccc(Cl)cc4)n3)CC2=O)cc1` (centres undefined), 990 s; that for `CN(C)S(=O)(=O)N1CCC2(CC1)CN(c1cccc(F)c1)C2c1ccccc1` (centres undefined), 1250 s. The result for `Cc1ccc2c(c1)N(S(C)(=O)=O)CCC(C(=O)Nc1ccc(F)cc1)O2` (centres undefined) reads 930 s; that for `Cc1cc(N2CCN(c3ccccn3)CC2)n2nc(C(F)(F)F)c(-c3ccccc3)c2n1`, 855 s; that for `CCc1ccc(C(C)NC(=O)C2CCN(c3cncnc3N3CCOCC3)CC2)cc1` (centres undefined), 697 s.

On to `COc1cccc(-c2cc(C(=O)N3CCN(c4ccccc4F)CC3)n(C)n2)c1`, for which the RP-LC retention time amounted to 772 s. For the molecule `O=C(c1cc(-c2ccncc2)n[nH]1)N1CCCC(C(=O)N2CC=C(c3ccccc3)CC2)C1` (centres undefined), the RP-LC retention time is 648 s.

Molecule `COC(=O)c1sccc1NC(=O)Nc1cccn2c(C3CCC3)nnc12` displayed an RP-LC retention time of 884 s. For the molecule `CCOC(=O)c1noc2nc(C)nc(Nc3cccc(CC)c3)c12`, the RP-LC retention time was determined as 1140 s. As to `COCCNCc1c(C(=O)O)c(C)n(Cc2cccc(Cl)c2)c1C`, the RP-LC retention time is 679 s. `Cc1ccc(Nc2nc(-c3ccc(C(C)C)cc3)cs2)nc1` had an RP-LC retention time of 1130 s. Take `COc1cccc(C2CC(c3ccc(F)cc3)=NC3(CCN(C(C)C)CC3)N2)c1O` (centres undefined): the RP-LC retention time is 608 s. With `CCOc1ccc(NC(=O)C2CCN(S(=O)(=O)c3cn(C(C)C)cn3)CC2)cc1` the figure was 775 s. Turning to `O=C(Nc1ccc2c(c1)OCO2)C1CCN(c2cc(N3CCCC3)ncn2)CC1`, the RP-LC retention time came out at 642 s. `CCc1nc(-c2csc(S(=O)(=O)N3CCCC(C(=O)NC4CCCCCCC4)C3)c2)no1` (centres undefined) yielded an RP-LC retention time of 1150 s. The result for `Cc1c(C(=O)NCC2CC2)cnn1-c1ccc(-c2nc(C(C)(C)C)no2)cn1` reads 1020 s; that for `CCCNC(=O)C1CCN(c2nc3ccc(-c4cccnc4)nc3s2)CC1`, 604 s.

`COc1ccc(-c2nc3cnccn3c2Nc2cccc(C)c2C)cc1OC` showed an RP-LC retention time of 838 s. With `Cn1nccc1-c1cccc(-c2noc(-c3ccccc3)n2)c1` the figure was 1120 s; with `CN(CC#N)C(=O)Cn1c(=O)c2cccn2c2ccccc21`, 705 s; with `Cn1cc(CN2CCC(C(=O)NCCN3CCN(c4ccccc4)CC3)CC2)c2ccccc21`, 571 s.

For the molecule `C=CCN1C(=O)COc2ccc(-c3nc(NC(=O)c4ccc(OC)c(OC)c4)sc3C)cc21`, the RP-LC retention time is 985 s. With `O=C(NCCc1cccs1)c1ccc(CN2CC(=O)N3CCCCC3C2=O)cc1` (centres undefined) the figure was 692 s; with `CCC(C(=O)NCCOC)n1nc(C)c2nn(-c3ccccc3)c(C)c2c1=O` (centres undefined), 763 s. The result for `CCn1cnc(S(=O)(=O)N2CCCC(C(=O)NCc3ccc(Cl)cc3)C2)c1` (centres undefined) reads 756 s; that for `CC(=O)N1CCc2cc(C(=O)NCc3ccccc3)ccc21`, 736 s; that for `Cn1nc(C(=O)N2CC(N(C3CCOCC3)S(C)(=O)=O)C2)c2ccccc21`, 698 s. For the molecule `COc1cccc(CNC(=O)C2(C)CCN(C(=O)Nc3ccc(C)c(Cl)c3)CC2)c1`, the RP-LC retention time stood at 930 s. With `Cc1ccc(C)c(Sc2ccc(N3CCC(C(=O)NCc4ccco4)CC3)nn2)c1` the figure was 818 s. With `O=C(NCCn1c(-c2ccc(F)cc2)nc2cccnc21)c1ccc2c(c1)OCO2` the figure was 697 s; with `CC1Cc2cc(-c3cc(CNC(=O)c4ccccc4C(F)(F)F)no3)ccc2O1` (centres undefined), 875 s. The molecule `COc1ccc(Cl)cc1NS(=O)(=O)c1c(C)sc(C)c1-c1cc(C)[nH]n1` showed an RP-LC retention time of 1040 s. The result for `O=C(Cn1nc2n(c1=O)CCCCC2)Nc1ccccc1C(F)(F)F` reads 713 s; that for `CC(NC(=O)Cn1nc(Cc2cccnc2)c2ccccc2c1=O)c1ccc2c(c1)OCCO2` (centres undefined), 632 s; that for `CCCN(C)CC1(O)CCC2(CCN(C(=O)c3sccc3C)CC2)CC1`, 560 s. With `FC(F)(F)c1nc(N2CCN(Cc3ccccc3)CC2)nc2c1CCCCC2` the figure was 885 s; with `Cc1cc(C)n(CC(=O)N2CCN(c3ccccc3F)CC2)c1-c1nc(C2CC2)no1`, 971 s; with `O=C(Cn1ccc2ccccc21)N1CCN(S(=O)(=O)C2CC2)CC1`, 563 s. With `Cc1cc(C)c(S(=O)(=O)N2CCN(C(=O)c3ccc4c(c3)OCO4)CC2)c(C)c1` the figure was 912 s.

For `Cn1ncc2c(Nc3ccccc3Cl)nc(Cl)nc21`, the RP-LC retention time turned out to be 891 s. With `CCOc1ccc2c(n1)CCN(C(=O)NCCOC)C2` the figure was 624 s; with `O=C(C1CCN(S(=O)(=O)N2CCOCC2)CC1)N1CCCC(c2nc(C3CCOCC3)no2)C1` (centres undefined), 700 s. The result for `CCS(=O)(=O)Nc1ccc(C2=NN(C(=O)c3ccco3)C(c3cccs3)C2)cc1` (centres undefined) reads 764 s; that for `COc1ccc(NS(=O)(=O)c2ccc(N3C(=O)CCC3=O)cc2)c(OC)c1`, 703 s; that for `O=C(NCC(F)(F)F)C(=O)NCC1(c2cccs2)CCCCC1`, 804 s. Molecule `Cc1cccc(-c2nnc(C)c(N3CCCC3)n2)c1` registered an RP-LC retention time of 656 s. The result for `O=C1NCCCn2cc(S(=O)(=O)NCc3ccc(F)cc3Cl)cc21` reads 686 s. With `Cc1ccc(F)c(NC(=O)c2nc(C)oc2C)c1` the figure was 1010 s. The result for `COc1cccc(N2C(=O)C3N=NN(Cc4nc(-c5ccc(C)c(C)c5)no4)C3C2=O)c1` (centres undefined) reads 1030 s; that for `O=C(Nc1ccc(F)cc1F)N1CCC(n2cnc3cc(Cl)ccc3c2=O)CC1`, 806 s.

On to `Cc1ccccc1S(=O)(=O)N1CC[C@@H]2CN(c3cnccn3)[C@@H]2C1`, for which the RP-LC retention time was 738 s. The molecule `O=C(NCC(F)(F)F)c1cnccn1` registered an RP-LC retention time of 597 s.

For `CCCCNC(=O)C1(c2ccc(NC(=O)C(C)C)cc2)CCCCC1`, the RP-LC retention time was 935 s. `CC(C)c1noc(-c2cccnc2-n2cnc(C(=O)Nc3ccc(F)cc3)c2)n1` returned an RP-LC retention time of 890 s. `Cc1ccc(NC(=O)N2CCC(N3CCN(Cc4ccccc4)C3=O)CC2)cc1C` displayed an RP-LC retention time of 843 s. The result for `Cc1ccccc1CNC(=O)C1(C)CCCN(C(=O)NC2CCCCC2)C1` (centres undefined) reads 904 s. Molecule `CCN1C(=O)c2cccnc2Sc2cc(NC(=O)C3CC3)ccc21` yielded an RP-LC retention time of 685 s. With `CC(C)n1cnc(S(=O)(=O)N2CCCC(C(=O)NCCCc3ccccc3)C2)c1` (centres undefined) the figure was 806 s; with `O=C(C1CCN(c2cnn(Cc3ccccc3)c(=O)c2)CC1)N1CCCCC1`, 761 s.
